Key:
[1] = molecular target: ternary complex comprising RAS and CypA; KRAS^G12D (Homo sapiens, UniProt P01116+P62937, G12D); experiment: Ternary complex binding assay (BLI), KRAS G12D; conditions: GMPPNP-loaded KRAS^G12D, fixed concentration of CypA, pH 7.4, read-out: KD2 (ternary complex equilibrium dissociation constant)
Description: (§1) To evaluate the ability of the test compounds to induce the formation of a ternary complex comprising RAS and CypA, we employed a Bio-layer Interferometry (BLI) method (Octet R8) to monitor the binding kinetics among the compounds, RAS, and CypA, and to calculate the affinity of the ternary complex. GMPPNP was first incubated with RAS protein to load GMPPNP onto RAS. His-tagged RAS proteins with different mutations were then immobilized on NTA sensors, followed by baseline equilibration for 120 seconds in the assay buffer (20 mM HEPES, pH 7.4, 150 mM NaCl, 5 mM MgCl2, 1 mM TCEP, 5 μM GMPPNP, 0.01% Tween 20). The sensors were subsequently exposed to buffer containing various concentrations of the compounds and a fixed concentration of CypA, and the association phase of ternary complex formation was monitored in real time. Once binding reached a plateau, the sensors were transferred to compound- and CypA-free buffer to measure the dissociation phase. To ensure accuracy, DMSO normalization was performed, buffer composition was optimized to reduce non-specific binding, and both negative and positive controls were employed to verify assay specificity. Data were processed using Octet Analysis Studio 13.0, analyzed using a 1:1 binding model, and the association rate constant (ka), dissociation rate constant (kdis), and equilibrium dissociation constant (KD2) were calculated.

MV411 = experiment: In vitro cell proliferation inhibition assay (CellTiter-Glo), MV411; type: cell-based; conditions: MV411, KRAS wild type, 72 h; read-out: IC50, antiproliferative activity
Description: (§2) According to the doubling time of different cell lines, different numbers of cells (1000-5000 cells/well) were seeded into 96-well plates containing 180 μL of the corresponding culture medium, and incubated overnight in a cell incubator at 37 °C with 5% C02. On the following day, the test compounds were pre-diluted in the culture medium in a 3-fold serial dilution series, with the highest concentration being […], resulting in 10 concentration gradients in total. Subsequently, 20 μL of culture medium containing the compounds at different concentrations was added to the cells in the 96-well plates, ensuring a final compound concentration of up to 10 μM, with 10 concentrations in 3-fold dilution. After co-incubation of the cells with the compounds for 72 h, the 96-well plates were removed from the incubator and equilibrated at room temperature for 30 min. Then, 25 μL of CellTiter-Glo® Reagent was added to each well and mixed thoroughly, followed by incubation at room temperature for 10 min. Subsequently, 100 μL of the samples was transferred to white 96-well plates (OptiPlate™-96, PerkinElmer), and […] signal values were read using a multifunctional microplate reader (SpectraMax i3x, Molecular Devices). The signal values were then normalized, and curve fitting was performed using a four-parameter logistic regression equation to calculate the half maximal inhibitory concentration (IC50) of the compounds against the cell lines.

HCT116 = experiment: In vitro cell proliferation inhibition assay (CellTiter-Glo), HCT116; type: cell-based; conditions: HCT116, KRAS (p.G13D), 72 h; read-out: IC50, antiproliferative activity
Description: (§3) Due to the diversity of RAS mutations, and in order to evaluate the activity of the compounds in different RAS mutant cell lines, we selected cell lines with KRAS^G12D, KRAS^G12V, KRAS^G12c, NRAS^q61L, KRAS^G13D, KRAS^G12R, and KRAS^WT mutations (see the table below for in vitro activity evaluation and screening of the compounds.
as §2

H358 = experiment: In vitro cell proliferation inhibition assay (CellTiter-Glo), H358; type: cell-based; conditions: H358, KRAS (p.G12C), 72 h; read-out: IC50, antiproliferative activity
Description: as §3, §2

[2] = molecular target: ternary complex comprising RAS and CypA; KRAS^WT (Homo sapiens, UniProt P01116+P62937); experiment: Ternary complex binding assay (BLI), KRAS WT; conditions: GMPPNP-loaded KRAS^WT, fixed concentration of CypA, pH 7.4, read-out: KD2 (ternary complex equilibrium dissociation constant)
Description: as §1

AsPC-1 = experiment: In vitro cell proliferation inhibition assay (CellTiter-Glo), AsPC-1; type: cell-based; conditions: AsPC-1, KRAS (p.G12D), 72 h; read-out: IC50, antiproliferative activity
Description: as §3, §2

SW480 = experiment: In vitro cell proliferation inhibition assay (CellTiter-Glo), SW480; type: cell-based; conditions: SW480, KRAS (p.G12V), 72 h; read-out: IC50, antiproliferative activity
Description: as §3, §2

PSN1 = experiment: In vitro cell proliferation inhibition assay (CellTiter-Glo), PSN1; type: cell-based; conditions: PSN1, KRAS (p.G12R), 72 h; read-out: IC50, antiproliferative activity
Description: as §3, §2

cyclophilin A (CypA) = molecular target: T1, cyclophilin A (CypA) (Homo sapiens, UniProt P62937); experiment: Binary complex binding assay (BLI); conditions: His-tagged CypA, pH 7.4, 1:1 binding model; for Kd: read-out: KD1 (binary complex equilibrium dissociation constant); for kon: read-out: ka (association rate constant); for koff: read-out: kdis (dissociation rate constant)
T1 construct: purchased R&D 3589-CAB
Description: To evaluate the binding ability of the test compounds to cyclophilin A (CypA), we employed a Bio-layer Interferometry (BLI) method (Octet R8) to monitor the binding kinetics between the compounds and CypA, and to calculate the affinity of the binary complex. His-tagged CypA protein (3589-CAB, R&D) was first immobilized on an NTA sensor, followed by baseline equilibration for 120 seconds in the assay buffer (20 mM HEPES, pH 7.4, 150 mM NaCl, 5 mM MgCl2, 1 mM TCEP, 0.01% Tween 20). The sensor was then exposed to buffer solutions containing different concentrations of the compounds to monitor the association process in real time. When the high-concentration compound binding reached a plateau, the sensor was transferred to compound-free buffer to measure the dissociation process. To ensure data accuracy, DMSO normalization was performed, non-specific binding was minimized by buffer optimization, and negative and positive controls were set to verify assay specificity. Data were processed using Octet Analysis Studio 13.0, analyzed using a 1:1 binding model, and the association rate constant (ka), dissociation rate constant (kdis), and equilibrium dissociation constant (KD1) were calculated.

HepG2 = experiment: In vitro cell proliferation inhibition assay (CellTiter-Glo), HepG2; type: cell-based; conditions: HepG2, NRAS (p.Q61L), 72 h; read-out: IC50, antiproliferative activity
Description: as §3, §2

[3] = molecular target: ternary complex comprising RAS and CypA; KRAS^G12V (Homo sapiens, UniProt P01116+P62937, G12V); experiment: Ternary complex binding assay (BLI), KRAS G12V; conditions: GMPPNP-loaded KRAS^G12V, fixed concentration of CypA, pH 7.4, read-out: KD2 (ternary complex equilibrium dissociation constant)
Description: as §1

Sequence of ternary complex comprising RAS and CypA; KRAS^G12V (P01116 1-188 isoform P01116-2 G12V): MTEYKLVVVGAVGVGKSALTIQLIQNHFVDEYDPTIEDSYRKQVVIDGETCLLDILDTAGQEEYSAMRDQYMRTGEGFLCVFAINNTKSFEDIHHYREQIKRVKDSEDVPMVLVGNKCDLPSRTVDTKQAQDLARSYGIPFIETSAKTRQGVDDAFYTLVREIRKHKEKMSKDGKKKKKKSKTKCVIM
Sequence of ternary complex comprising RAS and CypA; KRAS^G12V (P62937 whole entry): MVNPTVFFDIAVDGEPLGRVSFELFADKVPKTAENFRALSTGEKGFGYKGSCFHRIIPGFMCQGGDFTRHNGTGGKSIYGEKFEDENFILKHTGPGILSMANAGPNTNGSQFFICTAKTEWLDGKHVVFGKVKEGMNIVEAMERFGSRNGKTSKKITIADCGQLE
Sequence of ternary complex comprising RAS and CypA; KRAS^G12D (P01116 1-188 isoform P01116-2 G12D): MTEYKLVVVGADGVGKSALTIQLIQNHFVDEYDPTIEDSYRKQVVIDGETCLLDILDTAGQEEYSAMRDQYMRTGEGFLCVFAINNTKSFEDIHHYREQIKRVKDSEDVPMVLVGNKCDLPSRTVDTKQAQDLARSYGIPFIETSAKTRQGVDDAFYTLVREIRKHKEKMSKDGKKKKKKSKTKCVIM
Sequence of ternary complex comprising RAS and CypA; KRAS^G12D (P62937 whole entry): as the sequence (P62937 whole entry) above
Sequence of ternary complex comprising RAS and CypA; KRAS^WT (P01116 1-188 isoform P01116-2): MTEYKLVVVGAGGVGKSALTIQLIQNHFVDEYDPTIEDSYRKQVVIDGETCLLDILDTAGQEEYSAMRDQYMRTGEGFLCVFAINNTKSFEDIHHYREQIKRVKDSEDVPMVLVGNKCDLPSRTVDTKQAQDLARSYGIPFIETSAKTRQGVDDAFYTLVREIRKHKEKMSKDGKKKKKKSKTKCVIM
Sequence of ternary complex comprising RAS and CypA; KRAS^WT (P62937 whole entry): as the sequence (P62937 whole entry) above
T1 sequence (P62937 whole entry): as above

| Compound | Kd [1] [nM] | IC50 (MV411) [nM] | IC50 (HCT116) [nM] | IC50 (H358) [nM] | Kd [2] [nM] | IC50 (AsPC-1) [nM] | IC50 (SW480) [nM] | IC50 (PSN1) [nM] | Kd (cyclophilin A (CypA)) [nM] | kon (cyclophilin A (CypA)) [M⁻¹ s⁻¹] | koff (cyclophilin A (CypA)) [s⁻¹] | IC50 (HepG2) [nM] | Kd [3] [nM] | ka (association rate constant) (cyclophilin A (CypA)) |
| --- | --- | --- | --- | --- | --- | --- | --- | --- | --- | --- | --- | --- | --- | --- |
| CO[C@@H](C)c1ncc(-c2nnc(C3CCN(C4COC4)CC3)o2)cc1-c1c2c3cc(ccc3n1CC(F)(F)F)-c1csc(n1)C[C@H](NC(=O)[C@H]1C[C@@H]1C)C(=O)N1CCC[C@H](N1)C(=O)OCC(C)(C)C2 (atropisomer, axis not shown) [Compound 5, (1S,2S)—N-((6^3S,4S,Z)-1^2-(2-((S)-1-methoxyethyl)-5-(5-(1-(oxetan-3-yl)piperidin-4-yl)-1,3,4-oxadiazol-2-yl)pyridin-3-yl)-10,10-dimethyl-5,7-dioxo-1^1-(2,2,2-trifluoroethyl)-6^1,6^2,6^3,6^4,6^5,6^6-hexahydro-1^1H-8-oxa-2(4,2)-thiazola-1(5,3)-indola-6(1,3)-pyridazinacycloundecaphane-4-yl)-2-methylcyclopropane-1-carboxamide] | 27 | 0.66 | 0.02 | 0.034 | 17 | 0.08 | 0.11 | 0.03 | 8.6 | 200000 | 0.0017 | 0.66 | 27 | – |
| CCn1c(-c2cc(-c3nnc(C4CCN(C5CN(C(C)C)C5)CC4)o3)cnc2[C@H](C)OC)c2c3cc(ccc31)-c1csc(n1)C[C@H](NC(=O)[C@H]1C[C@@H]1C)C(=O)N1CCC[C@H](N1)C(=O)OCC(C)(C)C2 (atropisomer, axis not shown) [Compound 7, (1S,2S)—N-((6^3S,4S,Z)-1^1-ethyl-1^2-(5-(5-(1-(1-isopropylazetidin-3-yl)piperidin-4-yl)-1,3,4-oxadiazol-2-yl)-2-((S)-1-methoxyethyl)pyridin-3-yl)-10,10-dimethyl-5,7-dioxo-6^1,6^2,6^3,6^4,6^5,6^6-hexahydro-1^1H-8-oxa-2(4,2)-thiazola-1(5,3)-indola-6(1,3)-pyridazinacycloundecaphane-4-yl)-2-methylcyclopropane-1-carboxamide] | 19 | 0.49 | 0.7 | 0.004 | – | 0.03 | 0.14 | 0.05 | 16 | 230000 | 0.0037 | 0.05 | – | – |
| CCn1c(-c2cc(-c3nc(C4CCN(C5COC5)CC4)n(C)n3)cnc2[C@H](C)OC)c2c3cc(ccc31)-c1csc(n1)C[C@H](NC(=O)[C@H]1[C@H](C)[C@@H]1C)C(=O)N1CCC[C@H](N1)C(=O)OCC(C)(C)C2 (atropisomer, axis not shown) [Compound 4, (1r,2R,3S)—N-((6^3S,4S,Z)-1^1-ethyl-1^2-(2-((S)-1-methoxyethyl)-5-(1-methyl-5-(1-(oxetan-3-yl)piperidin-4-yl)-1H-1,2,4-triazol-3-yl)pyridin-3-yl)-10,10-dimethyl-5,7-dioxo-6^1,6^2,6^3,6^4,6^5,6^6-hexahydro-1^1H-8-oxa-2(4,2)-thiazola-1(5,3)-indola-6(1,3)-pyridazinacycloundecaphane-4-yl)-2,3-dimethylcyclopropane-1-carboxamide] | 43 | 0.35 | 2.8 | 0.001 | 27 | 0.21 | 0.52 | 0.07 | 0.81 | 150000 | 0.00012 | 0.06 | 25 | – |
| CO[C@@H](C)c1ncc(-c2nnc(C3CCN(C4CN(C(C)C)C4)CC3)o2)cc1-c1c2c3cc(ccc3n1CC(F)(F)F)-c1csc(n1)C[C@H](NC(=O)[C@H]1[C@H](C)[C@@H]1C)C(=O)N1CCC[C@H](N1)C(=O)OCC(C)(C)C2 (atropisomer, axis not shown) [Compound 10, (1r,2R,3S)—N-((6^3S,4S,Z)-1^2-(5-(5-(1-(1-isopropylazetidin-3-yl)piperidin-4-yl)-1,3,4-oxadiazol-2-yl)-2-((S)-1-methoxyethyl)pyridin-3-yl)-10,10-dimethyl-5,7-dioxo-1^1-(2,2,2-trifluoroethyl)-6^1,6^2,6^3,6^4,6^5,6^6-hexahydro-1^1H-8-oxa-2(4,2)-thiazola-1(5,3)-indola-6(1,3)-pyridazinacycloundecaphane-4-yl)-2,3-dimethylcyclopropane-1-carboxamide] | 17 | 0.42 | 0.14 | 0.021 | 9.3 | 0.005 | 0.01 | 0.07 | 2.7 | – | 0.00057 | 0.1 | 12 | 2.1E+05 1/[M*s] |

From patent US20260355191A1, “PAN-RAS INHIBITOR COMPOUND” (ADLAI NORTYE BIOPHARMA CO., LTD., priority 2024, published 2026)
